Laboratory results as given in paper PMC4519317, “MsmK, an ATPase, Contributes to Utilization of Multiple Carbohydrates and Host Colonization of Streptococcus suis” (PLoS ONE, 2015).

Molecular target: MsmK (Streptococcus suis, UniProt A0A0H3N1P0)
Conditions: 1 mM ATP, 10 mM MgCl2, 200 mM KCl, 50 mM PIPES/NaOH pH 6.8, 1 mM β-mercaptoethanol, 30°C, 1 h; labelled compound

Sequence of MsmK (A0A0H3N1P0 entry or part of it): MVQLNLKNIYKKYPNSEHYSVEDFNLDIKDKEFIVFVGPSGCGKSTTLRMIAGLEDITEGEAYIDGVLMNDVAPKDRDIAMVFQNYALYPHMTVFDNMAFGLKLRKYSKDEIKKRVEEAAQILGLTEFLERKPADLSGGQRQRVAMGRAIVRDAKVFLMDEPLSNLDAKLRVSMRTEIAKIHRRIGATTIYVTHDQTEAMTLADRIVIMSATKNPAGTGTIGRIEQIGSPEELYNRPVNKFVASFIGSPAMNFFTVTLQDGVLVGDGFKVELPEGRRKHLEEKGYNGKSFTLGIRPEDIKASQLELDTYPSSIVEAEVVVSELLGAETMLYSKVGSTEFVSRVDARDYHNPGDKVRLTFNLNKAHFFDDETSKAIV

SMILES: Nc1ncnc2c1ncn2[C@@H]1O[C@H](COP(=O)(O)OP(=O)(O)OP(=O)(O)O)[C@@H](O)[C@H]1O [ATP]
- radiometric TLC of ADP formed from [α-32P]-ATP: ATPase assays showed that the recombinant protein could hydrolyze ATP to ADP
